Laboratory results taken from patent publication US20080008773A1, “Food beverage or feed for the promotion of osteogenesis comprising umbelliferae, liliaceae or compositae plant species” (priority 2002, published 2008).

How the values were obtained:
MC3T3-E1 cells = test: Induction of differentiation of MC3T3-E1 cells into osteoblasts (alkaline phosphatase as index); type: cell-based, Mouse
Experimental: (§1) (1) Mouse interstitial cell strain ST-2 was suspended in DMEM medium (manufactured by Bio Whittaker) containing 10% fetal bovine serum (manufactured by Bio Whittaker) so as to have a concentration of 3×10^4 cells/ml. The suspension was put to a 96-well plate in an amount of 0.1 ml per well, and the cells were cultured sterilely. After the cells were cultured for 2 days, the medium was exchanged with a fresh medium. The compound a derived from root portions of Angelica keiskei koidz. obtained in Example 1 was added thereto as a sample, and the cells were cultured for 3 days. Subsequently, differentiation of ST-2 cells into osteoblasts was measured using alkaline phosphatase as an index. The cells were washed once with PBS, 100 μl of a reaction substrate solution (100 mM diethanolamine buffer, pH 10.0, 2 mM magnesium chloride, 1 mM p-nitrophenyl phosphate) was added thereto, and the reaction was carried out at 37° C. for 30 minutes. Next, the reaction was terminated with adding 100 μl of 0.2 N sodium hydroxide, and the amount of p-nitrophenol which was released was determined by determining absorbance at 405 nm. The activity for induction of differentiation into osteoblasts was shown by setting a group without addition of the sample as a control, and defining alkaline phosphatase activity of the control as 100%. The experiments were carried out twice, and the average was taken.
Mouse pre-osteoblast strain MC3T3-E1 was suspended in DMEM medium containing 10% fetal bovine serum so as to have a concentration of 3×10^4 cells/ml. The suspension was put to a 96-well plate in an amount of 0.1 ml per well, and the cells were cultured sterilely. After the cells were cultured for 2 days, the medium was exchanged with a fresh medium. The compound a derived from root portions of Angelica keiskei koidz. obtained in Example 1 was added thereto as a sample, and the cells were cultured for 5 days. Subsequently, the differentiation into osteoblasts was determined using alkaline phosphatase as an index in the same manner as in Example 2.

ST-2 cells = test: Induction of differentiation of ST-2 cells into osteoblasts (alkaline phosphatase as index); type: cell-based, Mouse
Experimental: as §1

Question: How did the “Induction of differentiation into osteoblasts (in words)” value (MC3T3-E1 cells) turn out when `CC12CCC(O)C(C)(C)C1Cc1c(O)ccc(C(=O)/C=C/c3ccc(O)cc3)c1O2` (single isomer, unassigned) [Compound a, (E)-1-(5,6,7,8,8a,10a-hexahydro-1,7-dihydroxy-8,8,10a-trimethyl-9H-xanthen-4-yl)-3-(4-hydroxyphenyl)-2-propen-1-one] was run?
Answer: The value was “induces the differentiation into osteoblasts in a concentration-dependent manner”.

Question: What about the activity at 1.25 µM (MC3T3-E1 cells; Mus musculus, 120 h, 1.25 μM, cultured 5 days, control = 100%) of the same molecule?
Answer: The activity at 1.25 µM was 171%.

Question: And the activity at 2.5 µM (MC3T3-E1 cells; Mus musculus, 120 h, 2.5 μM, cultured 5 days, control = 100%)?
Answer: The activity at 2.5 µM was 292%.

Question: And the “Induction of differentiation into osteoblasts (in words)” value (ST-2 cells)?
Answer: The value was “induces differentiation into osteoblasts in a concentration-dependent manner”.

Question: What about the activity at 0.313 µM (ST-2 cells; Mus musculus, 72 h, 0.313 μM, cultured 3 days, control without sample = 100%) of the same molecule?
Answer: Its activity at 0.313 µM is 219%.

Question: What about the activity at 0.625 µM (ST-2 cells; Mus musculus, 72 h, 0.625 μM, cultured 3 days, control without sample = 100%) of the same molecule?
Answer: The activity at 0.625 µM was 260%.

Question: What about the activity at 1.25 µM (ST-2 cells; Mus musculus, 72 h, 1.25 μM, cultured 3 days, control without sample = 100%) of the same molecule?
Answer: Its activity at 1.25 µM is 358%.
